# Reference: US4293489A, “Derivatives of A-30912A nucleus” (Eli Lilly and Company, priority 1980, dated 1981)
# Starred links: 1 amine or outer side, 2 acyl side, 3 side chain; linkers in the order of their positions; H or OH if unused. Positions of bridges follow the written chain, without caps; N, C: chain ends. Non-standard residues stand in square brackets, D forms with d. Residues, ends and D or L forms follow the SMILES beside them. *: point of attachment. Orn(4R-OH,5R-OH) = O=C([C@H](C[C@@H](O)[C@@H](O)N[*:3])N[*:1])[*:2]; hTyr(3S-OH,4S-OH) = N[C@H](C(=O)O)[C@H](O)[C@@H](O)c1ccc(O)cc1; Benzoyl(4-OC10H21) = CCCCCCCCCCOc1ccc(C(=O)*)cc1; Pro(3S-OH,4S-Me) = C[C@H]1CN[C@H](C(=O)O)[C@H]1O; Benzoyl(4-octyloxy) = CCCCCCCCOc1ccc(C(=O)*)cc1; X5 = CCCCCCCCCCCCS(=O)(=O)c1ccc(C(=O)*)cc1; X4 = CCCCCCCCCCS(=O)(=O)c1ccc(C(=O)*)cc1; X23 = CCCCCCCCS(=O)(=O)c1ccc(C(=O)*)cc1; X22 = CCCCCCCCCCCCOc1ccc(CCC(=O)*)cc1; X25 = CCCCCCCCCCOc1ccc(OCC(=O)*)cc1; X1 = CCCCCCCCCCCCSc1ccc(C(=O)*)cc1; X21 = CCCCCCCCOc1ccc(CCC(=O)*)cc1; Hyp = O=C(O)[C@@H]1C[C@@H](O)CN1; X29 = CCCCCCCOc1ccc(CCC(=O)*)cc1; X6 = CCCCCCCCCCSc1ccc(C(=O)*)cc1; X30 = CCCCCCCCOc1ccc(C(=O)*)cn1; X26 = CCCCCOc1ccc(CCC(=O)*)cc1; X7 = CCCCCCCCSc1ccc(C(=O)*)cc1
# How the values were obtained:
# [1] = tested on: Trychophyton mentagrophyes #6; assay: Agar plate disc diffusion test, MIC per disc; type: cell-based, Trichophyton mentagrophytes; conditions: 0.1M sodium borate, pH 7.5, 24 hours, 30° C., * measurable zones with regrowth of organism around disc
# Experimental: (§1) Tables 10 and 11 give the results of the testing in vitro of the compounds of Examples 3 and 4 by agar-plate disc-diffusion methods. In Table 10 activity is measured by the size (diameter in mm) of the observed zone of inhibition of the microorganism produced by the test compound. In Table 11, activity is measured by the minimal inhibitory concentration (MIC) of the substance (μg/disc) required to inhibit growth of the test organism. Table 12 gives the results of the testing in vitro of the p-(n-octyloxy)benzoyl derivative of A30912A nucleus [Formula III, R^1 is p-(n-octyloxy)benzoyl] against five strains of Candida albicans by the agar dilution method. In Table 12 activity is measured by the minimal inhibitory concentration (MIC) of the substance (μg/ml) required to inhibit the test organism.
# (§2) ^(a) Compounds were suspended in 0.1M sodium borate solution, pH 7.5.
# (§3) The compounds were tested at 20 μg/disc at top level and at twofold
# (§4) dilutions until end points were reached. Incubation: 24 hours; 30°
# *Measurable zones of inhibition with regrowth of organism around disc.
# Candida albicans A-26 [2] = assay: Agar plate disc diffusion test, MIC per disc; type: cell-based; conditions: 0.1M sodium borate, pH 7.5, 24 hours, 30° C.
# Experimental: as §1, §2, §3, §4
# Candida albicans A-26 [3] = assay: Therapeutic activity against Candida albicans A-26 infection in mice, ED50; type: in vivo; conditions: Candida albicans, A26, sc, doses 0, 4 and 24 hours post infection, increase in survival time vs control, Reed-Muench, read-out: ED50
# Experimental: The results of in vivo tests to evaluate the effectiveness of the compounds of Examples 3 and 4 against an infection caused by Candida albicans A-26 in mice are given in Table 13, where activity is measured by the ED50 value (the dose in mg/kg. required to cure 50% of the test animals). In a separate test, the results of which are also summarized in Table 13, activity is indicated by the lowest dose at which a significant anti-fungal effect is observed. In this test, groups of male albino mice (specific pathogen free), weighing 18 to 20 grams, are infected intravenously with Candida albicans A-26. The animals are X-irradiated 24 hours prior to infection at about 50 roentgens per minute for 8 minutes (400 total dose) to reduce immune responses to the infecting organism. At 0, 4, and 24 hours post infection each group of mice is given graded doses subcutaneously of the test compound as a suspension in 33% polyethylene glycol (PEG)-water. The day of death for each animal is recorded.
# *Dosage Schedules: A. = 40, 20, 15 and 10 mg/kg; Dosages given 0, 4, and
# 24 hours post injection as suspension of test compound in 30% PEGH2
# O. Number of mice receiving test compounds at each dosage level: 6 mice
# per group. Number of mice in control (untreated) group: 10 mice per group
# **As measured by increase in survival time of treated animals versus
# control, calculated by method of Reed v Mueuch, American J. Hygiene, 27,
Compound,MIC [1] [μg/disc],MIC (Candida albicans A-26 [2]) [μg/disc],ED50 (Candida albicans A-26 [3]) [mg/kg]
"CCCCCCCCOc1ccc(C(=O)N[C@H]2C[C@@H](O)[C@@H](O)NC(=O)[C@@H]3[C@@H](O)[C@@H](C)CN3C(=O)[C@H]([C@@H](C)O)NC(=O)[C@H]([C@H](O)[C@@H](O)c3ccc(O)cc3)NC(=O)[C@@H]3C[C@@H](O)CN3C(=O)[C@H]([C@@H](C)O)NC2=O)cc1 [drawing 115] ({Benzoyl(4-octyloxy)}-[Orn(4R-OH,5R-OH)]T[Hyp][hTyr(3S-OH,4S-OH)]T[Pro(3S-OH,4S-Me)]; lactam 1-C)",< 0.039,0.156,
"CCCCCCCCCCOc1ccc(C(=O)N[C@H]2C[C@@H](O)[C@@H](O)NC(=O)[C@@H]3[C@@H](O)[C@@H](C)CN3C(=O)[C@H]([C@@H](C)O)NC(=O)[C@H]([C@H](O)[C@@H](O)c3ccc(O)cc3)NC(=O)[C@@H]3C[C@@H](O)CN3C(=O)[C@H]([C@@H](C)O)NC2=O)cc1 [drawing 116] ({Benzoyl(4-OC10H21)}-[Orn(4R-OH,5R-OH)]T[Hyp][hTyr(3S-OH,4S-OH)]T[Pro(3S-OH,4S-Me)]; lactam 1-C)",< 0.078,0.156,
"CCCCCCCCSc1ccc(C(=O)N[C@H]2C[C@@H](O)[C@@H](O)NC(=O)[C@@H]3[C@@H](O)[C@@H](C)CN3C(=O)[C@H]([C@@H](C)O)NC(=O)[C@H]([C@H](O)[C@@H](O)c3ccc(O)cc3)NC(=O)[C@@H]3C[C@@H](O)CN3C(=O)[C@H]([C@@H](C)O)NC2=O)cc1 [drawing 119] (X7-[Orn(4R-OH,5R-OH)]T[Hyp][hTyr(3S-OH,4S-OH)]T[Pro(3S-OH,4S-Me)]; lactam 1-C)",< 0.039,0.312,
"CCCCCCCCCCCCSc1ccc(C(=O)N[C@H]2C[C@@H](O)[C@@H](O)NC(=O)[C@@H]3[C@@H](O)[C@@H](C)CN3C(=O)[C@H]([C@@H](C)O)NC(=O)[C@H]([C@H](O)[C@@H](O)c3ccc(O)cc3)NC(=O)[C@@H]3C[C@@H](O)CN3C(=O)[C@H]([C@@H](C)O)NC2=O)cc1 [drawing 121] (X1-[Orn(4R-OH,5R-OH)]T[Hyp][hTyr(3S-OH,4S-OH)]T[Pro(3S-OH,4S-Me)]; lactam 1-C)",< 0.039,2.5,
"CCCCCCCCS(=O)(=O)c1ccc(C(=O)N[C@H]2C[C@@H](O)[C@@H](O)NC(=O)[C@@H]3[C@@H](O)[C@@H](C)CN3C(=O)[C@H]([C@@H](C)O)NC(=O)[C@H]([C@H](O)[C@@H](O)c3ccc(O)cc3)NC(=O)[C@@H]3C[C@@H](O)CN3C(=O)[C@H]([C@@H](C)O)NC2=O)cc1 [drawing 159] (X23-[Orn(4R-OH,5R-OH)]T[Hyp][hTyr(3S-OH,4S-OH)]T[Pro(3S-OH,4S-Me)]; lactam 1-C)",,,57
"CCCCCCCCCCS(=O)(=O)c1ccc(C(=O)N[C@H]2C[C@@H](O)[C@@H](O)NC(=O)[C@@H]3[C@@H](O)[C@@H](C)CN3C(=O)[C@H]([C@@H](C)O)NC(=O)[C@H]([C@H](O)[C@@H](O)c3ccc(O)cc3)NC(=O)[C@@H]3C[C@@H](O)CN3C(=O)[C@H]([C@@H](C)O)NC2=O)cc1 [drawing 160] (X4-[Orn(4R-OH,5R-OH)]T[Hyp][hTyr(3S-OH,4S-OH)]T[Pro(3S-OH,4S-Me)]; lactam 1-C)",,,57
"CCCCCCCCOc1ccc(CCC(=O)N[C@H]2C[C@@H](O)[C@@H](O)NC(=O)[C@@H]3[C@@H](O)[C@@H](C)CN3C(=O)[C@H]([C@@H](C)O)NC(=O)[C@H]([C@H](O)[C@@H](O)c3ccc(O)cc3)NC(=O)[C@@H]3C[C@@H](O)CN3C(=O)[C@H]([C@@H](C)O)NC2=O)cc1 [drawing 172] (X21-[Orn(4R-OH,5R-OH)]T[Hyp][hTyr(3S-OH,4S-OH)]T[Pro(3S-OH,4S-Me)]; lactam 1-C)",,,4.5
"CCCCCCCCCCCCOc1ccc(CCC(=O)N[C@H]2C[C@@H](O)[C@@H](O)NC(=O)[C@@H]3[C@@H](O)[C@@H](C)CN3C(=O)[C@H]([C@@H](C)O)NC(=O)[C@H]([C@H](O)[C@@H](O)c3ccc(O)cc3)NC(=O)[C@@H]3C[C@@H](O)CN3C(=O)[C@H]([C@@H](C)O)NC2=O)cc1 [drawing 173] (X22-[Orn(4R-OH,5R-OH)]T[Hyp][hTyr(3S-OH,4S-OH)]T[Pro(3S-OH,4S-Me)]; lactam 1-C)",,,4.5

# The next lines start with results.
MIC [1] [μg/disc],MIC (Candida albicans A-26 [2]) [μg/disc],Compound,ED50 (Candida albicans A-26 [3]) [mg/kg]
< 0.156,0.156,"CCCCCCCCCCOc1ccc(OCC(=O)N[C@H]2C[C@@H](O)[C@@H](O)NC(=O)[C@@H]3[C@@H](O)[C@@H](C)CN3C(=O)[C@H]([C@@H](C)O)NC(=O)[C@H]([C@H](O)[C@@H](O)c3ccc(O)cc3)NC(=O)[C@@H]3C[C@@H](O)CN3C(=O)[C@H]([C@@H](C)O)NC2=O)cc1 (X25-[Orn(4R-OH,5R-OH)]T[Hyp][hTyr(3S-OH,4S-OH)]T[Pro(3S-OH,4S-Me)]; lactam 1-C)",
0.156,5,"CCCCCOc1ccc(CCC(=O)N[C@H]2C[C@@H](O)[C@@H](O)NC(=O)[C@@H]3[C@@H](O)[C@@H](C)CN3C(=O)[C@H]([C@@H](C)O)NC(=O)[C@H]([C@H](O)[C@@H](O)c3ccc(O)cc3)NC(=O)[C@@H]3C[C@@H](O)CN3C(=O)[C@H]([C@@H](C)O)NC2=O)cc1 (X26-[Orn(4R-OH,5R-OH)]T[Hyp][hTyr(3S-OH,4S-OH)]T[Pro(3S-OH,4S-Me)]; lactam 1-C)",
0.156,0.625,"CCCCCCCOc1ccc(CCC(=O)N[C@H]2C[C@@H](O)[C@@H](O)NC(=O)[C@@H]3[C@@H](O)[C@@H](C)CN3C(=O)[C@H]([C@@H](C)O)NC(=O)[C@H]([C@H](O)[C@@H](O)c3ccc(O)cc3)NC(=O)[C@@H]3C[C@@H](O)CN3C(=O)[C@H]([C@@H](C)O)NC2=O)cc1 (X29-[Orn(4R-OH,5R-OH)]T[Hyp][hTyr(3S-OH,4S-OH)]T[Pro(3S-OH,4S-Me)]; lactam 1-C)",
2.5,80,"CCCCCCCCOc1ccc(C(=O)N[C@H]2C[C@@H](O)[C@@H](O)NC(=O)[C@@H]3[C@@H](O)[C@@H](C)CN3C(=O)[C@H]([C@@H](C)O)NC(=O)[C@H]([C@H](O)[C@@H](O)c3ccc(O)cc3)NC(=O)[C@@H]3C[C@@H](O)CN3C(=O)[C@H]([C@@H](C)O)NC2=O)cn1 (X30-[Orn(4R-OH,5R-OH)]T[Hyp][hTyr(3S-OH,4S-OH)]T[Pro(3S-OH,4S-Me)]; lactam 1-C)",
0.039,0.156,"CCCCCCCCCCSc1ccc(C(=O)N[C@H]2C[C@@H](O)[C@@H](O)NC(=O)[C@@H]3[C@@H](O)[C@@H](C)CN3C(=O)[C@H]([C@@H](C)O)NC(=O)[C@H]([C@H](O)[C@@H](O)c3ccc(O)cc3)NC(=O)[C@@H]3C[C@@H](O)CN3C(=O)[C@H]([C@@H](C)O)NC2=O)cc1 [drawing 120] (X6-[Orn(4R-OH,5R-OH)]T[Hyp][hTyr(3S-OH,4S-OH)]T[Pro(3S-OH,4S-Me)]; lactam 1-C)",
0.312,20,"CCCCCCCCS(=O)(=O)c1ccc(C(=O)N[C@H]2C[C@@H](O)[C@@H](O)NC(=O)[C@@H]3[C@@H](O)[C@@H](C)CN3C(=O)[C@H]([C@@H](C)O)NC(=O)[C@H]([C@H](O)[C@@H](O)c3ccc(O)cc3)NC(=O)[C@@H]3C[C@@H](O)CN3C(=O)[C@H]([C@@H](C)O)NC2=O)cc1 [drawing 123] (X23-[Orn(4R-OH,5R-OH)]T[Hyp][hTyr(3S-OH,4S-OH)]T[Pro(3S-OH,4S-Me)]; lactam 1-C)",
0.156,2.5,"CCCCCCCCCCS(=O)(=O)c1ccc(C(=O)N[C@H]2C[C@@H](O)[C@@H](O)NC(=O)[C@@H]3[C@@H](O)[C@@H](C)CN3C(=O)[C@H]([C@@H](C)O)NC(=O)[C@H]([C@H](O)[C@@H](O)c3ccc(O)cc3)NC(=O)[C@@H]3C[C@@H](O)CN3C(=O)[C@H]([C@@H](C)O)NC2=O)cc1 [drawing 124] (X4-[Orn(4R-OH,5R-OH)]T[Hyp][hTyr(3S-OH,4S-OH)]T[Pro(3S-OH,4S-Me)]; lactam 1-C)",
0.078,0.625,"CCCCCCCCCCCCS(=O)(=O)c1ccc(C(=O)N[C@H]2C[C@@H](O)[C@@H](O)NC(=O)[C@@H]3[C@@H](O)[C@@H](C)CN3C(=O)[C@H]([C@@H](C)O)NC(=O)[C@H]([C@H](O)[C@@H](O)c3ccc(O)cc3)NC(=O)[C@@H]3C[C@@H](O)CN3C(=O)[C@H]([C@@H](C)O)NC2=O)cc1 [drawing 125] (X5-[Orn(4R-OH,5R-OH)]T[Hyp][hTyr(3S-OH,4S-OH)]T[Pro(3S-OH,4S-Me)]; lactam 1-C)",
